# According to ChEMBL document CHEMBL6109146, “Discovery of New Pyrazolone Carbothioamide Derivatives as Potent Antifungal Agents for the Treatment of Candidiasis and Cryptococcosis” (J Med Chem, 2025):
# Active and inactive are the calls of the source. The rule behind the calls is not given here.
# Key:
# [1] = system: Nakaseomyces glabratus; assay: Antifungal activity against Candida glabrata 0161 assessed as inhibition of fungal cell colony formation at 0.5 microg/ml incubated for 48 hrs by spot-plating assay; format: functional, organism-based; details: dose 0.5 µg/ml
# [2] = system: Cryptococcus neoformans; assay: (§1) Antifungal activity against Cryptococcus neoformans H99 infected in cryptococcosis female ICR mouse model assessed as reduction in vacuolation in brain at 5 mg/kg, ip pre-infected with fungi for 3 hrs followed by compound administration and measured after 5 days by H and E staining based analysis; format: functional, organism-based; details: time 5.0 day
# [3] = system: Cryptococcus neoformans; assay: Inhibition of capsule formation in Cryptococcus neoformans H99 at 4 microg/ml incubated for 24 hrs by light microscopic analysis; format: functional, organism-based; details: dose 4.0 µg/ml
# [4] = system: Cryptococcus neoformans; assay: as §1, with “as intact cellular structures” for “as reduction in vacuolation”, “brain cortex” for “brain”, “at 20” for “at 5”; format: functional, organism-based; details: time 5.0 day
# [5] = system: Nakaseomyces glabratus; assay: Antifungal activity against Candida glabrata 0161 assessed as inhibition of fungal growth in presence of Fe(II) ion; format: functional, organism-based
# [6] = system: Nakaseomyces glabratus; assay: Antifungal activity against Candida glabrata 9256 assessed as inhibition of fungal growth incubated for 48 to 72 hrs by microplate reader analysis; format: functional; details: time 48-72 hrs
# [7] = system: Nakaseomyces glabratus; assay: Inhibition of biofilm formation in Candida glabrata 0161 at 16 to 32 microg/ml incubated for 24 hrs by XTT reagent based assay relative to control; format: functional; details: dose 16-32 µg/ml, at 16 to 32 µg/mL
# [8] = system: Cryptococcus neoformans; assay: Induction of morphological changes in Cryptococcus neoformans H99 assessed as cell wall damage at 4 microg/ml incubated for 8 hrs by transmission electron microscopic analysis; format: functional, organism-based; details: dose 4.0 µg/ml
# [9] = AUC (0 to infinity) in male ICR mouse at 2 mg/kg, iv measured after 24 hrs by LC-MS/MS analysis; format: ADME, organism-based; details: in vivo
# [10] = system: Cryptococcus neoformans; assay: Upregulation of TRX1 gene expression in Cryptococcus neoformans H99 at 4 microg/ml incubated for 8 hrs by qRT-PCR analysis; format: functional; details: dose 4.0 µg/ml
# [11] = system: Cryptococcus neoformans; assay: Upregulation of TSA1 gene expression in Cryptococcus neoformans H99 at 4 microg/ml incubated for 8 hrs by qRT-PCR analysis; format: functional; details: dose 4.0 µg/ml
# [12] = system: Cryptococcus neoformans; assay: Inhibition of melanin production in Cryptococcus neoformans H99 at 0.125 microg/ml by photographic analysis relative to control; format: functional
# [13] = system: Nakaseomyces glabratus; assay: Antifungal activity against Candida glabrata 0161 assessed as inhibition of fungal growth at 0.13 microg/ml incubated up to 72 hrs by microplate reader analysis relative to control; format: functional
# [14] = Half-life in male ICR mouse at 2 mg/kg, iv measured after 24 hrs by LC-MS/MS analysis; format: ADME, organism-based; details: in vivo
# [15] = system: Nakaseomyces glabratus; assay: Antifungal activity against Candida glabrata 0161 assessed as inhibition of fungal growth incubated for 48 to 72 hrs by microplate reader analysis; format: functional; details: time 48-72 hrs
# [16] = system: Cryptococcus neoformans; assay: Induction of morphological changes in Cryptococcus neoformans H99 assessed as cell membrane damage by measuring plasmolysis at 4 microg/ml incubated for 8 hrs by transmission electron microscopic analysis; format: functional, organism-based; details: dose 4.0 µg/ml
# [17] = AUC (0 to t) in male ICR mouse at 20 mg/kg, po measured after 24 hrs by LC-MS/MS analysis; format: ADME, organism-based; details: in vivo
# [18] = system: Candida albicans; assay: Antifungal activity against Candida albicans 103 assessed as inhibition of fungal growth incubated for 48 to 72 hrs by microplate reader analysis; format: functional, organism-based; details: time 48-72 hrs
# [19] = system: Cryptococcus neoformans; assay: Induction of ROS accumulation in Cryptococcus neoformans H99 assessed as increase in intracellular ROS level by measuring intense green fluorescence at 4 microg/ml incubated for 24 hrs by DCFH-DA probe based fluorescence microscopic analysis; format: functional, organism-based; details: dose 4.0 µg/ml
# [20] = Tmax in male ICR mouse at 2 mg/kg, iv measured after 24 hrs by LC-MS/MS analysis; format: ADME, organism-based; details: in vivo
# [21] = system: Cryptococcus neoformans; assay: Inhibition of matured biofilm in Cryptococcus neoformans H99 at 2 to 32 microg/ml incubated for 24 hrs by XTT reagent based assay; format: functional, organism-based; details: dose 2-32 µg/ml
# [22] = system: Nakaseomyces glabratus; assay: Upregulation of TRR1 gene expression in Candida glabrata 0161 incubated for 8 hrs by qRT-PCR analysis; format: functional
# [23] = system: Nakaseomyces glabratus; assay: Antifungal activity against Candida glabrata 0161 assessed as inhibition of fungal growth at <0.0078 microg/ml incubated for 72 hrs by microplate reader analysis; format: functional, organism-based; details: dose < 0.0078 µg/ml
# [24] = system: Nakaseomyces glabratus; assay: Upregulation of CAT1 gene expression in Candida glabrata 0161 incubated for 8 hrs by qRT-PCR analysis; format: functional
# [25] = system: Nakaseomyces glabratus; assay: Antifungal activity against Candida glabrata 0161 infected in candidiasis female ICR mouse model assessed as reduction in fungal burden in kidney at 20 mg/kg, ip pre-infected with fungi for 3 hrs followed by compound administration and measured after 5 days; format: functional; details: time 5 day
# [26] = system: Candida albicans; assay: Antifungal activity against Candida albicans SC5314 assessed as inhibition of fungal growth incubated for 48 to 72 hrs by microplate reader analysis; format: functional, organism-based; details: time 48-72 hrs
# [27] = system: Nakaseomyces glabratus; assay: Upregulation of GPX1 gene expression in Candida glabrata 0161 incubated for 8 hrs by qRT-PCR analysis; format: functional
# [28] = system: Nakaseomyces glabratus; assay: Reduction in intracellular free iron ions level in Candida glabrata 0161 incubated for 24 hrs by absorbance based analysis; format: functional
# [29] = system: Cryptococcus neoformans; assay: Antifungal activity against Cryptococcus neoformans H99 infected in cryptococcosis female ICR mouse model assessed as reduction in fungal burden in brain at 20 mg/kg, ip pre-infected with fungi for 3 hrs followed by compound administration and measured after 5 days; format: functional, organism-based; details: time 5.0 day
# [30] = system: Cryptococcus neoformans; assay: Antifungal activity against Cryptococcus neoformans H99 infected in cryptococcosis female ICR mouse model assessed as reduction in fungal burden in brain at 20 mg/kg, po pre-infected with fungi for 3 hrs followed by compound administration and measured after 5 days; format: functional, organism-based; details: time 5.0 day
# [31] = system: Nakaseomyces glabratus; assay: Upregulation of SOD1 gene expression in Candida glabrata 0161 incubated for 8 hrs by qRT-PCR analysis; format: functional
# [32] = system: Nakaseomyces glabratus; assay: Induction of oxidative damage Candida glabrata 0161 assessed as increase in MDA level incubated for 24 hrs; format: functional, organism-based
# [33] = system: Cryptococcus neoformans; assay: Antifungal activity against Cryptococcus neoformans H99 assessed as inhibition of fungal growth by measuring fold increase in MIC in presence of 10% serum containing transferrin-bound ferric iron and free iron; format: functional
# [34] = system: Nakaseomyces glabratus; assay: Upregulation of TSA1 gene expression in Candida glabrata 0161 incubated for 8 hrs by qRT-PCR analysis; format: functional
# [35] = Half-life in male ICR mouse at 20 mg/kg, po measured after 24 hrs by LC-MS/MS analysis; format: ADME, organism-based; details: in vivo
# [36] = Volume of distribution at steady state in male ICR mouse at 2 mg/kg, iv measured after 24 hrs by LC-MS/MS analysis; format: ADME, organism-based; details: in vivo, read-out: Vdss
# [37] = system: Cryptococcus neoformans; assay: Induction of morphological changes in Cryptococcus neoformans H99 assessed as vacuole lysis at 4 microg/ml incubated for 8 hrs by transmission electron microscopic analysis; format: functional, organism-based; details: dose 4.0 µg/ml
# [38] = AUC (0 to infinity) in male ICR mouse at 20 mg/kg, po measured after 24 hrs by LC-MS/MS analysis; format: ADME, organism-based; details: in vivo
# [39] = system: Cryptococcus neoformans; assay: Induction of morphological changes in Cryptococcus neoformans H99 assessed as vacuole fragmentation at 4 microg/ml incubated for 8 hrs by transmission electron microscopic analysis; format: functional, organism-based; details: dose 4.0 µg/ml
# [40] = system: Cryptococcus neoformans; assay: Upregulation of SOD1 gene expression in Cryptococcus neoformans H99 at 4 microg/ml incubated for 8 hrs by qRT-PCR analysis; format: functional; details: dose 4.0 µg/ml
# [41] = system: Cryptococcus neoformans; assay: Fungicidal activity against Cryptococcus neoformans H99 incubated for 72 hrs by time-kill kinetics analysis; format: functional
compound,measurement,setting,value
Nc1cc(=O)n(C(=S)Nc2ccc(C3CCCCC3)cc2)[nH]1,Activity,[1],Active
same,Activity,[2],Not active; Slight Vacuolation Observed
same,inhibition,[3],Active
same,Activity,[4],Active
same,Activity,[5],inactive
same,MIC80,[6],1.2 10^-4 ug/ml
same,inhibition (INH),[7],~100%
same,Activity,[8],inactive
same,AUC(0-inf),[9],2100 ng·h/mL
same,Activity,[10],Active
same,Activity,[11],Active
same,inhibition at 0.125 µg/mL,[12],100%
same,inhibition at 0.13 µg/mL,[13],100%
same,half-life,[14],2.12 h
same,MIC80,[15],0.38 nM
same,Activity,[16],Active
same,AUC(0-t) at 24 h,[17],4600 ng·h/mL
same,Activity,[18],Active
same,Activity,[19],Active
same,Tmax,[20],4.98 min
same,inhibition,[21],Active; Better Inhibitory Effect Observed Under High Concentration
same,Activity,[22],Active
same,Activity,[23],Not active; Decrease In Inhibitory Potency Observed
same,Activity,[24],Active
same,Activity,[25],1.2 log10CFU/g
same,Activity,[26],Active
same,Activity,[27],Active
same,Activity,[28],Active
same,Activity,[29],Active
same,Activity,[30],Active
same,Activity,[31],Active
same,Activity,[32],Active
same,fold change (FC),[33],~1000
same,Activity,[34],Active
same,half-life,[35],1.46 h
same,Vd,[36],1.47 L/kg
same,Activity,[37],Active
same,AUC(0-inf),[38],4740 ng·h/mL
same,Activity,[39],Active
same,Activity,[40],Active
same,MFC,[41],16 µg/mL
